Source: patent publication US20240294543A1, “CYCLOHEPTA-THIENO-DIAZEPINE DERIVATIVES AS GABA A GAMMA1 PAM” (Hoffmann-La Roche Inc., priority 2021, published 2024)
Read-outs that look alike come from different tables or passages of the source.

Columns and labels:
[1] = biological target: human GABAA α1β2γ1 receptor (Homo sapiens (Human), UniProt P14867+Q8N1C3); assay: Radioligand binding assay, competition for [3H]RO7239181, γ1-containing GABAA subtypes
[2] = biological target: human GABAA α5β2γ1 receptor (Homo sapiens (Human), UniProt P31644+Q8N1C3); assay: as above
[3] = Ki h-GABAA α1β2γ1, membranes of HEK293F cells, [3H]RO7239181 20-30 nM, Table 1
[4] = membranes of HEK293F cells, [3H]RO7239181 20-30 nM, Table 1, read-out: Ki h-GABAA α1β2γ1

Row | Compound | Ki [1, 3] [nM] | Ki [2] [nM] | Ki [1, 4] [nM] | Ki ([1]; Ki h-GABAA α1β2γ1, Table 3, reference compounds and examples) [nM]
1 | Cc1nnc2n1-c1sc3c(c1C(c1c(F)cccc1Cl)=N[C@H]2C)COCCO3 [Example 35, (7S)-9-(2-chloro-6-fluoro-phenyl)-3,7-dimethyl-13,16-dioxa-18-thia-2,4,5,8-tetrazatetracyclo[8.8.0.02,6.011,17]octadeca-1(10),3,5,8,11(17)-pentaene] | 47.2 | 5.21 |  | 
2 | C[C@@H]1N=C(c2c(F)cccc2F)c2c(sc3c2COC[C@H](C)O3)-n2nc(C(=O)N3CC(F)C3)nc21 [Example 40, [(7S,15S)-9-(2,6-difluorophenyl)-7,15-dimethyl-13,16-dioxa-18-thia-2,3,5,8-tetrazatetracyclo[8.8.0.02,6.011,17]octadeca-1(10),3,5,8,11(17)-pentaen-4-yl]-(3-fluoroazetidin-1-yl)methanone] |  | 2.65 | 286 | 
3 | C[C@@H]1N=C(c2c(F)cccc2F)c2c(sc3c2COCCO3)-n2nc(C(=O)NCC(C)(C)O)nc21 [Example 45, (7S)-9-(2,6-difluorophenyl)-N-(2-hydroxy-2-methyl-propyl)-7-methyl-13,16-dioxa-18-thia-2,3,5,8-tetrazatetracyclo[8.8.0.02,6.011,17]octadeca-1(10),3,5,8,11(17)-pentaene-4-carboxamide] |  | 3.25 | 103 | 
4 | C[C@@H]1N=C(c2c(F)cccc2F)c2c(sc3c2COCCO3)-n2nc(C(=O)NC[C@@](C)(O)C(F)(F)F)nc21 [Example 46, (7S)-9-(2,6-difluorophenyl)-7-methyl-N-[(2R)-3,3,3-trifluoro-2-hydroxy-2-methyl-propyl]-13,16-dioxa-18-thia-2,3,5,8-tetrazatetracyclo[8.8.0.02,6.011,17]octadeca-1(10),3,5,8,11(17)-pentaene-4-carboxamide] | 60 | 3.54 |  | 
5 | C[C@@H]1N=C(c2c(F)cccc2F)c2c(sc3c2COCCO3)-n2nc(C(=O)NC[C@](C)(O)C(F)(F)F)nc21 [Example 47, (7S)-9-(2,6-difluorophenyl)-7-methyl-N-[(2S)-3,3,3-trifluoro-2-hydroxy-2-methyl-propyl]-13,16-dioxa-18-thia-2,3,5,8-tetrazatetracyclo[8.8.0.02,6.011,17]octadeca-1(10),3,5,8,11(17)-pentaene-4-carboxamide] | 93.4 | 4.43 |  | 
6 | Cc1nnc2n1-c1sc3c(c1C(c1c(F)cccc1F)=N[C@H]2C)COCCC3 [Example 52, (7S)-9-(2,6-difluorophenyl)-3,7-dimethyl-13-oxa-18-thia-2,4,5,8-tetrazatetracyclo[8.8.0.02,6.011,17]octadeca-1(10),3,5,8,11(17)-pentaene] | 75.3 | 7.6 |  | 75.3
7 | Cc1nnc2n1-c1sc3c(c1C(c1c(F)cccc1Cl)=N[C@H]2C)COCCC3 [Example 61, (7S)-9-(2-chloro-6-fluoro-phenyl)-3,7-dimethyl-13-oxa-18-thia-2,4,5,8-tetrazatetracyclo[8.8.0.02,6.011,17]octadeca-1(10),3,5,8,11(17)-pentaene] | 49.1 | 4.98 |  | 
